What all share (format): cell-based
For experiment [1], the system named is NFκB. Kind of experiment: TNF-α-induced activation of NFκB in nuclei of normal human fibroblasts. The note with it: for NFκB (AU), mean / NFκB (AU), single values / NFκB, % control: TNF-α 25 ng/ml; for NFκB, % control: control with TNF-α = 100. As to the method: This study makes it possible to evaluate the effects of the mixture according to the invention on the activation of NFκB, using a very sensitive specific method based on measuring the binding of the transcription factor NFκB to the consensus oligonucleotide sequence immobilized on a plastic support. Bound NFκB is secondarily recognized by a specific anti-NFκB antibody. This assay was carried out on isolated nuclei of normal human fibroblasts. The culture medium is DMEM, which comprises: • 2 mM L-glutamine • 50 IU/ml penicillin, 50 μg/ml streptomycin • 10% (v/v) fetal calf serum for the preculture and then a switch to serum-free medium The fibroblasts were precultured in 175 cm^2 flasks in DMEM medium containing 10 vol % of FCS until confluency, and the culture medium was then replaced with serum-free DMEM medium. The cells were then cultured in the presence of the products to be assayed or of references, for 1 hour. The proinflammatory agent […] (TNF-α, at 25 ng/ml final concentration; Sigma T0157) was then added to the culture medium and the cells were again incubated for 1 hour at 37° C. and 5% CO2. After incubation, the cells were harvested on ice and the cell nuclei of the various samples were isolated using the Sigma NUC-101 kit according to the protocol recommended by the supplier. The amount of proteins of each nuclear extract was determined using the Biorad 500-0116 assay kit. The amount of activated NFκB bound to the specific oligonucleotide was measured on the same amount of nuclear extract of each sample, i.e. 50 μl, diluted 50/50, after visualization using a specific anti-NFκB antibody. […] AU represents the arbitrary units of NFκB in the extract; this is the difference between the measured value and the background noise.

Experiment [2] deals with IL-1α. Nature of the experiment: Effect of interferon-γ on intracellular IL-1α production by normal human keratinocytes. Also on record: multiplication of the basal amount of IL-1α: dose or concentration left out as unconfirmed. An excerpt: The effects of interferon-gamma (IFN-γ) on the production and release of epidermal cytokines was studied on normal human keratinocytes (strain K02-1H4).

In experiment [3] the test system is PGE-2. Nature of the experiment: Effect of interferon-γ on release of PGE-2 by normal human keratinocytes. Here is the method:
(§1) The effects of interferon-gamma (IFN-γ) on the production and release of epidermal cytokines was studied on normal human keratinocytes (strain K02-1H4). 4 concentrations of IFN-g were tested:
The effects of IFN-γ on the production and release of PGE-2 was studied under the same experimental conditions as previously described (Table 31).

Experiment [4] has as its system TNF-α. Kind of experiment: Effect of interferon-γ on production of TNF-α by normal human keratinocytes. As to conditions: for TNF-α, mean: normal human keratinocytes, 24 h. Here is the method: (§2) The study is carried out on normal human keratinocytes. The cells are first treated with 4 concentrations of interferon-gamma (IFN-γ), for 24 hours.
(§3) Next, the inflammation mediators are measured in the control cultures and cultures treated with IFN-γ, by assaying IL-8 and TNF-α in the culture supernatants and by assaying cell proteins. The method of measurement used is the Coomassie blue test; it is a standardized method.

For experiment [5], the system named is IL-8. Kind of experiment: Effect of interferon-γ on production and release of IL-8 by normal human keratinocytes. As to the method:
as §2, §3, §1
The effects of IFN-γ on the production and release of IL-8 were studied under the same experimental conditions.

The mark [6] stands for this setting: K02-1H4, interferon-γ 1000 U/ml.
[7] abbreviates: K02-1H4, interferon-γ 2000 U/ml.

Where “and” joins values, the source holds several entries; their conditions need not be identical. Equal values may be shown once.

Experimental findings from patent US8486900B2, “Method for preparing a Centella asiatica extract rich in madecassoside and in terminoloside” (Bayer Consumer Care AG, priority 2002, dated 2013) are described below.

Turning to `C[C@@H]1C[C@H]2[C@@H]3CCC4=CC(=O)C=C[C@]4(C)[C@@]3(F)[C@@H](O)C[C@]2(C)[C@@]1(O)C(=O)CO` [dexamethasone, Dexamethasone], in experiment [1] (0.1 μM), the “nuclear translocation of NFκB induced by TNF-α” value is recorded as “did not inhibit”. In experiment [1] (0.1 μM dexamethasone), the “NFκB (AU), mean” value is given as 9.46 AU; the “NFκB (AU), single values” was 10.94 AU and 7.3 AU and 9.90 AU and 9.67 AU; the “NFκB, % control” value amounted to 99%.
Regarding “Interferon-γ: interferon-gamma used as irritative agent to stimulate keratinocytes”, the “multiplication of the basal amount of IL-1α” value in experiment [2] (IFN-γ 1000) was found to be 2.6 fold; in experiment [2] (IFN-γ 2000), 3.8 fold. The “IL-1α (intracellular), mean” value in experiment [2] (K02-1H4, interferon-γ 100 U/ml) was 6.80 pg/μg proteins; in experiment [2] (K02-1H4, interferon-γ 500 U/ml) it was 8.29 pg/μg proteins; in experiment [2] (setting [6]), 11.21 pg/μg proteins; in experiment [2] (setting [7]), 12.48 pg/μg proteins. In experiment [3] (100 to 2000 U/ml), the “stimulation of the production and release of PGE-2” value is reported as “not capable of stimulating”. For the same compound, the “Extracellular PGE-2, mean” value in experiment [3] (K02-1H4, interferon-γ 100 U/ml) came to 3.60 pg/μg proteins; in experiment [3] (K02-1H4, interferon-γ 500 U/ml), 3.45 pg/μg proteins; in experiment [3] (setting [6]), 3.48 pg/μg proteins; in experiment [3] (setting [7]) it was 3.80 pg/μg proteins. Also, the “multiplication of the basal amount of TNF-α” value is recorded as 3.3 fold in experiment [4] (interferon 1000 U/ml) and 4.5 fold in experiment [4] (interferon 2000 U/ml). Also, the “TNF-α, mean” value in experiment [4] (interferon-γ 100 U/ml) is given as 3.198 pg/μg proteins; in experiment [4] (interferon-γ 500 U/ml), 8.605 pg/μg proteins; in experiment [4] (interferon-γ 1000 U/ml) it was 10.773 pg/μg proteins; in experiment [4] (interferon-γ 2000 U/ml), 14.545 pg/μg proteins. Moreover, the “multiplication of the basal amount of IL-8” value came to 26 fold in experiment [5] (Example 8, interferon 1000 U/ml) and 38 fold in experiment [5] (Example 8, interferon 2000 U/ml). Also, the “IL-8, mean” value is reported as 0.980 pg/μg proteins in experiment [5] (Example 8, normal human keratinocytes, 24 h, interferon-γ 100 U/ml); 1.301 pg/μg proteins in experiment [5] (Example 8, normal human keratinocytes, 24 h, interferon-γ 500 U/ml); 1.991 pg/μg proteins in experiment [5] (Example 8, normal human keratinocytes, 24 h, interferon-γ 1000 U/ml); 2.917 pg/μg proteins in experiment [5] (Example 8, normal human keratinocytes, 24 h, interferon-γ 2000 U/ml); 0.252 pg/μg proteins in experiment [5] (Example 12, K02-1H4, interferon-γ 100 U/ml); 0.350 pg/μg proteins in experiment [5] (Example 12, K02-1H4, interferon-γ 500 U/ml). The “IL-8, mean” value in experiment [5] (Example 12, K02-1H4, interferon-γ 1000 U/ml) stood at 0.516 pg/μg proteins; in experiment [5] (Example 12, K02-1H4, interferon-γ 2000 U/ml), 0.671 pg/μg proteins.
Regarding `O=C(O)c1cc(/N=N/c2ccc(S(=O)(=O)Nc3ccccn3)cc2)ccc1O` [sulfasalazine, Sulfasalazine], in experiment [1] (5 mM sulfasalazine), the “NFκB (AU), mean” value was 4.19 AU; the “NFκB (AU), single values” is 4.93 AU and 4.01 AU and 2.88 AU; the “NFκB, % control” value was 44%.
